Columns and labels:
Clostridioides difficile = experiment: Antibacterial activity against Clostridium difficile by CLSI M11-A6 agar dilution method; format: functional
[Clostridium] innocuum = Antibacterial activity against Clostridium innocuum by CLSI M11-A6 agar dilution method; format: functional
Clostridium perfringens = experiment: Antibacterial activity against Clostridium perfringens by CLSI M11-A6 agar dilution method; format: functional
Thomasclavelia ramosa = experiment: Antibacterial activity against Clostridium ramosum by CLSI M11-A6 agar dilution method; format: functional
Clostridium subterminale = experiment: Antibacterial activity against Clostridium subterminale by CLSI M11-A6 agar dilution method; format: functional
Clostridium beijerinckii = experiment: Antibacterial activity against Clostridium beijerinckii by CLSI M11-A6 agar dilution method; format: functional
Clostridium butyricum = experiment: Antibacterial activity against Clostridium butyricum by CLSI M11-A6 agar dilution method; format: functional
[1] = system: Clostridium celerecrescens; experiment: Antibacterial activity against Clostridium celerecrescens by CLSI M11-A6 agar dilution method; format: functional; details: Lacrimispora celerecrescens
Clostridium = experiment: Antibacterial activity against Clostridium hypermegas by CLSI M11-A6 agar dilution method; format: functional
Clostridium leptum = experiment: Antibacterial activity against Clostridium leptum by CLSI M11-A6 agar dilution method; format: functional
Flavonifractor plautii = experiment: Antibacterial activity against Clostridium orbiscindens by CLSI M11-A6 agar dilution method; format: functional
Clostridium scindens = experiment: Antibacterial activity against Clostridium scindens by CLSI M11-A6 agar dilution method; format: functional
[2] = system: Paeniclostridium sordellii; experiment: Antibacterial activity against Clostridium sordellii by CLSI M11-A6 agar dilution method; format: functional; details: Paraclostridium sordellii
Clostridium spiroforme = experiment: Antibacterial activity against Clostridium spiroforme by CLSI M11-A6 agar dilution method; format: functional; details: Thomasclavelia spiroformis
Clostridium sporogenes = experiment: Antibacterial activity against Clostridium sporogenes by CLSI M11-A6 agar dilution method; format: functional
Clostridium sp. = experiment: Antibacterial activity against Clostridium sp. by CLSI M11-A6 agar dilution method; format: functional
Bifidobacterium bifidum = experiment: Antibacterial activity against Bifidobacterium bifidum by CLSI M11-A6 agar dilution method; format: functional
Bifidobacterium dentium = experiment: Antibacterial activity against Bifidobacterium dentium by CLSI M11-A6 agar dilution method; format: functional
[3] = Antibacterial activity against Bifidobacterium infantis by CLSI M11-A6 agar dilution method; format: functional, Bifidobacterium longum subsp. infantis; details: Bifidobacterium longum
Collinsella aerofaciens = experiment: Antibacterial activity against Colinsella aerofaciens by CLSI M11-A6 agar dilution method; format: functional
Eggerthella lenta = experiment: Antibacterial activity against Eggerthella lenta by CLSI M11-A6 agar dilution method; format: functional
Holdemania filiformis = experiment: Antibacterial activity against Holdemania filiformis by CLSI M11-A6 agar dilution method; format: functional
Ruminococcus obeum = experiment: Antibacterial activity against Ruminococcus obeum by CLSI M11-A6 agar dilution method; format: functional; details: Blautia obeum
Blautia luti = experiment: Antibacterial activity against Ruminococcus luti by CLSI M11-A6 agar dilution method; format: functional
Blautia producta = experiment: Antibacterial activity against Ruminococcus productus by CLSI M11-A6 agar dilution method; format: functional
Ruminococcus sp. = experiment: Antibacterial activity against Ruminococcus sp. by CLSI M11-A6 agar dilution method; format: functional
Anaerococcus prevotii = experiment: Antibacterial activity against Anaerococcus prevotii by CLSI M11-A6 agar dilution method; format: functional
Streptococcus anginosus = experiment: Antibacterial activity against Streptococcus anginosus by CLSI M11-A6 agar dilution method; format: functional
Bacteroides ovatus = experiment: Antibacterial activity against Bacteroides ovatus by CLSI M11-A6 agar dilution method; format: functional
[4] = system: Bacteroides thetaiotaomicron; experiment: Antibacterial activity against Bacteroides thetaiotaomicron by CLSI M11-A6 agar dilution method; format: functional
Bilophila wadsworthia = experiment: Antibacterial activity against Bilophila wadsworthia by CLSI M11-A6 agar dilution method; format: functional
Fusobacterium mortiferum = experiment: Antibacterial activity against Fusobacterium mortiferum by CLSI M11-A6 agar dilution method; format: functional
Fusobacterium varium = experiment: Antibacterial activity against Fusobacterium varium by CLSI M11-A6 agar dilution method; format: functional
Prevotella corporis = experiment: Antibacterial activity against Prevotella corporis by CLSI M11-A6 agar dilution method; format: functional
Prevotella intermedia = experiment: Antibacterial activity against Prevotella P intermedia by CLSI M11-A6 agar dilution method; format: functional
Prevotella nigrescens = experiment: Antibacterial activity against Prevotella nigrescens by CLSI M11-A6 agar dilution method; format: functional
Hoylesella loescheii = experiment: Antibacterial activity against Prevotella loescheii by CLSI M11-A6 agar dilution method; format: functional
[5] = system: Prevotella melaninogenica; experiment: Antibacterial activity against Prevotella melaninogenica by CLSI M11-A6 agar dilution method; format: functional
Hoylesella oralis = experiment: Antibacterial activity against Prevotella oralis by CLSI M11-A6 agar dilution method; format: functional

CCCCCCCCCC(=O)N[C@@H](Cc1c[nH]c2ccccc12)C(=O)N[C@H](CC(N)=O)C(=O)N[C@@H](CC(=O)O)C(=O)N[C@@H]1C(=O)NCC(=O)N[C@@H](CCCN)C(=O)N[C@@H](CC(=O)O)C(=O)N[C@H](C)C(=O)N[C@@H](CC(=O)O)C(=O)NCC(=O)N[C@H](CO)C(=O)N[C@@H]([C@H](C)CC(=O)O)C(=O)N[C@@H](CC(=O)c2ccccc2N)C(=O)O[C@@H]1C
8 µg/mL: MIC50 ([Clostridium] innocuum) | MIC90 (Clostridium beijerinckii) | MIC90 (Clostridium butyricum) | MIC90 [1] | MIC90 (Clostridium) | MIC90 (Clostridium leptum) | MIC90 (Flavonifractor plautii) | MIC90 (Clostridium scindens) | MIC90 [2] | MIC90 (Clostridium spiroforme) | MIC90 (Clostridium sporogenes) | MIC90 (Clostridium sp.)
2 µg/mL: MIC90 (Clostridium subterminale) | MIC90 (Blautia luti) | MIC90 (Blautia producta) | MIC50 (Streptococcus anginosus)
4 µg/mL: MIC90 (Ruminococcus sp.) | MIC90 (Anaerococcus prevotii) | MIC90 (Streptococcus anginosus)
0.5 µg/mL: MIC50 (Clostridioides difficile) | MIC50 (Clostridium perfringens) | MIC50 (Ruminococcus obeum) | MIC90 (Ruminococcus obeum)
1 µg/mL: MIC90 (Clostridioides difficile) | MIC90 (Clostridium perfringens) | MIC50 (Clostridium subterminale) | MIC50 (Clostridium beijerinckii) | MIC50 (Clostridium butyricum) | MIC50 [1] | MIC50 (Clostridium) | MIC50 (Clostridium leptum) | MIC50 (Flavonifractor plautii) | MIC50 (Clostridium scindens) | MIC50 [2] | MIC50 (Clostridium spiroforme) | MIC50 (Clostridium sporogenes) | MIC50 (Clostridium sp.) | MIC50 (Bifidobacterium bifidum) | MIC50 (Bifidobacterium dentium) | MIC50 [3] | MIC50 (Collinsella aerofaciens) | MIC50 (Eggerthella lenta) | MIC50 (Holdemania filiformis) | MIC50 (Blautia luti) | MIC50 (Blautia producta) | MIC50 (Ruminococcus sp.) | MIC50 (Anaerococcus prevotii)
> 128 µg/mL: MIC (Bacteroides ovatus) | MIC50 (Bacteroides ovatus) | MIC90 (Bacteroides ovatus) | MIC [4] | MIC50 [4] | MIC90 [4] | MIC (Bilophila wadsworthia) | MIC50 (Bilophila wadsworthia) | MIC90 (Bilophila wadsworthia) | MIC (Fusobacterium mortiferum) | MIC50 (Fusobacterium mortiferum) | MIC90 (Fusobacterium mortiferum) | MIC (Fusobacterium varium) | MIC50 (Fusobacterium varium) | MIC90 (Fusobacterium varium) | MIC (Prevotella corporis) | MIC50 (Prevotella corporis) | MIC90 (Prevotella corporis) | MIC (Prevotella intermedia) | MIC50 (Prevotella intermedia) | MIC90 (Prevotella intermedia) | MIC (Prevotella nigrescens) | MIC50 (Prevotella nigrescens) | MIC90 (Prevotella nigrescens) | MIC (Hoylesella loescheii) | MIC50 (Hoylesella loescheii) | MIC90 (Hoylesella loescheii) | MIC [5] | MIC50 [5] | MIC90 [5] | MIC (Hoylesella oralis) | MIC50 (Hoylesella oralis) | MIC90 (Hoylesella oralis)
16 µg/mL: MIC90 ([Clostridium] innocuum)
64 µg/mL: MIC50 (Thomasclavelia ramosa) | MIC90 (Thomasclavelia ramosa)
32 µg/mL: MIC90 (Bifidobacterium bifidum) | MIC90 (Bifidobacterium dentium) | MIC90 [3] | MIC90 (Collinsella aerofaciens) | MIC90 (Eggerthella lenta) | MIC90 (Holdemania filiformis)

CCCCCCCCCCNCCN[C@@]1(C)C[C@H](O[C@H]2[C@H](Oc3c4cc5cc3Oc3ccc(cc3Cl)[C@@H](O)[C@@H](NC(=O)[C@@H](CC(C)C)NC)C(=O)N[C@@H](CC(N)=O)C(=O)N[C@H]5C(=O)N[C@H]3C(=O)N[C@H](C(=O)N[C@H](C(=O)O)c5cc(O)c(CNCP(=O)(O)O)c(O)c5-c5cc3ccc5O)[C@H](O)c3ccc(c(Cl)c3)O4)O[C@H](CO)[C@@H](O)[C@@H]2O)O[C@@H](C)[C@H]1O [TELAVANCIN]
0.5 µg/mL: MIC90 (Bifidobacterium bifidum) | MIC90 (Bifidobacterium dentium) | MIC90 [3] | MIC90 (Collinsella aerofaciens) | MIC90 (Eggerthella lenta) | MIC90 (Holdemania filiformis)
≤ 0.12 µg/mL: MIC50 (Clostridium perfringens) | MIC (Clostridium subterminale) | MIC50 (Clostridium subterminale) | MIC90 (Clostridium subterminale) | MIC50 (Clostridium beijerinckii) | MIC50 (Clostridium butyricum) | MIC50 [1] | MIC50 (Clostridium) | MIC50 (Clostridium leptum) | MIC50 (Flavonifractor plautii) | MIC50 (Clostridium scindens) | MIC50 [2] | MIC50 (Clostridium spiroforme) | MIC50 (Clostridium sporogenes) | MIC50 (Clostridium sp.) | MIC50 (Bifidobacterium bifidum) | MIC50 (Bifidobacterium dentium) | MIC50 [3] | MIC50 (Collinsella aerofaciens) | MIC50 (Eggerthella lenta) | MIC50 (Holdemania filiformis) | MIC (Ruminococcus obeum) | MIC50 (Ruminococcus obeum) | MIC90 (Ruminococcus obeum) | MIC50 (Blautia luti) | MIC90 (Blautia luti) | MIC50 (Blautia producta) | MIC90 (Blautia producta) | MIC50 (Ruminococcus sp.) | MIC50 (Anaerococcus prevotii) | MIC50 (Streptococcus anginosus) | MIC90 (Streptococcus anginosus)
64 µg/mL: MIC90 (Prevotella corporis) | MIC90 (Prevotella intermedia) | MIC90 (Prevotella nigrescens) | MIC90 (Hoylesella loescheii) | MIC90 [5] | MIC90 (Hoylesella oralis)
> 64 µg/mL: MIC (Bacteroides ovatus) | MIC50 (Bacteroides ovatus) | MIC90 (Bacteroides ovatus) | MIC50 [4] | MIC90 [4] | MIC (Bilophila wadsworthia) | MIC50 (Bilophila wadsworthia) | MIC90 (Bilophila wadsworthia) | MIC50 (Fusobacterium mortiferum) | MIC90 (Fusobacterium mortiferum) | MIC50 (Fusobacterium varium) | MIC90 (Fusobacterium varium)
2 µg/mL: MIC50 ([Clostridium] innocuum) | MIC90 ([Clostridium] innocuum)
8 µg/mL: MIC50 (Prevotella corporis) | MIC50 (Prevotella intermedia) | MIC50 (Prevotella nigrescens) | MIC50 (Hoylesella loescheii) | MIC50 [5] | MIC50 (Hoylesella oralis)
0.25 µg/mL: MIC50 (Clostridioides difficile) | MIC90 (Clostridioides difficile) | MIC90 (Clostridium perfringens) | MIC (Thomasclavelia ramosa) | MIC50 (Thomasclavelia ramosa) | MIC90 (Thomasclavelia ramosa) | MIC90 (Clostridium beijerinckii) | MIC90 (Clostridium butyricum) | MIC90 [1] | MIC90 (Clostridium) | MIC90 (Clostridium leptum) | MIC90 (Flavonifractor plautii) | MIC90 (Clostridium scindens) | MIC90 [2] | MIC90 (Clostridium spiroforme) | MIC90 (Clostridium sporogenes) | MIC90 (Clostridium sp.) | MIC90 (Ruminococcus sp.) | MIC90 (Anaerococcus prevotii)

— ChEMBL document CHEMBL1671662, “In vitro activities of telavancin and six comparator agents against anaerobic bacterial isolates” (2009)
